# Measured values reported in ChEMBL document CHEMBL1201862, “PubChem BioAssay data set” (2004).
#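 Exposure lasted 48 hours, with cells grown in 96-well plates and compounds tested at five concentrations. Abbreviation: GI50, concentration required for 50% inhibition of growth.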 Calls of active or inactive are those of the source. Cut-off read from the data, not from the text of the source: active = GI50 up to about 1.1 µM and inactive = higher.
# Experiments:
# Test in all cases: growth of human tumour cells (NCI), 48 h
# 786-0 = test system: 786-0
# A498 = test system: A498
# A549 = test system: A549
# ACHN = test system: ACHN
# BT-549 = test system: BT-549
# CAKI-1 = test system: CAKI-1
# CCRF-CEM = test system: CCRF-CEM
# COLO 205 = test system: COLO 205
# DU-145 = test system: DU-145
# EKVX = test system: EKVX
# HCC 2998 = test system: HCC 2998
# HCT-116 = test system: HCT-116
# HCT-15 = test system: HCT-15
# HOP-62 = test system: HOP-62
# HOP-92 = test system: HOP-92
# HT-29 = test system: HT-29
# Hs-578T = test system: Hs-578T
# IGROV-1 = test system: IGROV-1
# K562 = test system: K562
# KM12 = test system: KM12
# LOX IMVI = test system: LOX IMVI
# M14 = test system: M14
# MCF7 = test system: MCF7
# MDA-MB-231 = test system: MDA-MB-231
# MDA-MB-435 = test system: MDA-MB-435
# MDA-N = test system: MDA-N
# MOLT-4 = test system: MOLT-4
# NCI-H226 = test system: NCI-H226
# NCI-H23 = test system: NCI-H23
# NCI-H460 = test system: NCI-H460
# NCI-H522 = test system: NCI-H522
# NCI/ADR-RES = test system: NCI/ADR-RES
# OVCAR-3 = test system: OVCAR-3
# OVCAR-4 = test system: OVCAR-4
# OVCAR-5 = test system: OVCAR-5
# OVCAR-8 = test system: OVCAR-8
# PC-3 = test system: PC-3
# RPMI-8226 = test system: RPMI-8226
# RXF 393 = test system: RXF 393
# SF-268 = test system: SF-268
# SF-295 = test system: SF-295
# SF-539 = test system: SF-539
# SK-MEL-28 = test system: SK-MEL-28
# SK-MEL-2 = test system: SK-MEL-2
# SK-MEL-5 = test system: SK-MEL-5
# SK-OV-3 = test system: SK-OV-3
# SN12C = test system: SN12C
# SNB-19 = test system: SNB-19
# SNB-75 = test system: SNB-75
# SR = test system: SR
# SW-620 = test system: SW-620
# T47D = test system: T47D
# TK-10 = test system: TK-10
# U-251 = test system: U-251
# UACC-257 = test system: UACC-257
# UACC-62 = test system: UACC-62
# UO-31 = test system: UO-31
# Malme-3M = test system: Malme-3M
compound,measurement,setting,value
CC(=O)/C(=C\NC(N)=S)C(=O)Nc1ccccc1C,GI50,786-0,> 100 µM (inactive)
same,GI50,A498,> 100 µM (inactive)
same,GI50,A549,> 100 µM (inactive)
same,GI50,ACHN,> 100 µM (inactive)
same,GI50,BT-549,> 100 µM (inactive)
same,GI50,CAKI-1,> 100 µM (inactive)
same,GI50,CCRF-CEM,> 100 µM (inactive)
same,GI50,COLO 205,> 100 µM (inactive)
same,GI50,DU-145,> 100 µM (inactive)
same,GI50,EKVX,> 100 µM (inactive)
same,GI50,HCC 2998,> 100 µM (inactive)
same,GI50,HCT-116,> 100 µM (inactive)
same,GI50,HCT-15,> 100 µM
same,GI50,HOP-62,> 100 µM (inactive)
same,GI50,HOP-92,> 100 µM (inactive)
same,GI50,HT-29,> 100 µM (inactive)
same,GI50,Hs-578T,> 100 µM (inactive)
same,GI50,IGROV-1,> 100 µM (inactive)
same,GI50,K562,> 100 µM (inactive)
same,GI50,KM12,> 100 µM (inactive)
same,GI50,LOX IMVI,> 100 µM (inactive)
same,GI50,M14,> 100 µM (inactive)
same,GI50,MCF7,> 100 µM (inactive)
same,GI50,MDA-MB-231,> 100 µM (inactive)
same,GI50,MDA-MB-435,> 100 µM (inactive)
same,GI50,MDA-N,> 100 µM (inactive)
same,GI50,MOLT-4,> 100 µM (inactive)
same,GI50,NCI-H226,> 100 µM (inactive)
same,GI50,NCI-H23,> 100 µM (inactive)
same,GI50,NCI-H460,> 100 µM (inactive)
same,GI50,NCI-H522,> 100 µM (inactive)
same,GI50,NCI/ADR-RES,> 100 µM (inactive)
same,GI50,OVCAR-3,> 100 µM (inactive)
same,GI50,OVCAR-4,> 100 µM (inactive)
same,GI50,OVCAR-5,> 100 µM (inactive)
same,GI50,OVCAR-8,> 100 µM (inactive)
same,GI50,PC-3,> 100 µM (inactive)
same,GI50,RPMI-8226,> 100 µM (inactive)
same,GI50,RXF 393,> 100 µM (inactive)
same,GI50,SF-268,> 100 µM (inactive)
same,GI50,SF-295,> 100 µM (inactive)
same,GI50,SF-539,> 100 µM (inactive)
same,GI50,SK-MEL-28,> 100 µM (inactive)
same,GI50,SK-MEL-2,> 100 µM (inactive)
same,GI50,SK-MEL-5,> 100 µM (inactive)
same,GI50,SK-OV-3,> 100 µM (inactive)
same,GI50,SN12C,> 100 µM (inactive)
same,GI50,SNB-19,> 100 µM (inactive)
same,GI50,SNB-75,> 100 µM (inactive)
same,GI50,SR,> 100 µM (inactive)
same,GI50,SW-620,> 100 µM (inactive)
same,GI50,T47D,> 100 µM (inactive)
same,GI50,TK-10,> 100 µM (inactive)
same,GI50,U-251,> 100 µM (inactive)
same,GI50,UACC-257,> 100 µM (inactive)
same,GI50,UACC-62,> 100 µM (inactive)
same,GI50,UO-31,> 100 µM (inactive)
COc1ccccc1N1C(=O)CC(=O)N(C(=O)CCCCCCCCC(=O)N2C(=O)CC(=O)N(c3ccccc3OC)C2=S)C1=S,GI50,786-0,> 100 µM (inactive)
same,GI50,A498,> 100 µM (inactive)
same,GI50,A549,53.7 µM (inactive)
same,GI50,ACHN,> 100 µM (inactive)
same,GI50,BT-549,55.3 µM (inactive)
same,GI50,CAKI-1,> 100 µM (inactive)
same,GI50,CCRF-CEM,27.3 µM (inactive)
same,GI50,COLO 205,> 100 µM (inactive)
same,GI50,DU-145,> 100 µM (inactive)
same,GI50,EKVX,51.8 µM (inactive)
same,GI50,HCC 2998,> 100 µM (inactive)
same,GI50,HCT-116,56.9 µM (inactive)
same,GI50,HCT-15,96.4 µM
same,GI50,HOP-62,> 100 µM (inactive)
same,GI50,HOP-92,59.2 µM (inactive)
same,GI50,HT-29,49.4 µM (inactive)
same,GI50,Hs-578T,69 µM (inactive)
same,GI50,K562,38.1 µM (inactive)
same,GI50,KM12,53.8 µM (inactive)
same,GI50,LOX IMVI,95.3 µM (inactive)
same,GI50,M14,69.7 µM (inactive)
same,GI50,MCF7,44.2 µM (inactive)
same,GI50,MDA-MB-231,43.7 µM (inactive)
same,GI50,MDA-MB-435,> 100 µM (inactive)
same,GI50,MDA-N,67.3 µM (inactive)
same,GI50,MOLT-4,35.1 µM (inactive)
same,GI50,Malme-3M,> 100 µM (inactive)
same,GI50,NCI-H226,> 100 µM (inactive)
same,GI50,NCI-H23,53.6 µM (inactive)
same,GI50,NCI-H460,83.9 µM (inactive)
same,GI50,NCI-H522,47.3 µM (inactive)
same,GI50,NCI/ADR-RES,91.6 µM (inactive)
same,GI50,OVCAR-3,55.2 µM (inactive)
same,GI50,OVCAR-4,73.1 µM (inactive)
same,GI50,OVCAR-5,> 100 µM (inactive)
same,GI50,OVCAR-8,63.2 µM (inactive)
same,GI50,PC-3,62.5 µM (inactive)
same,GI50,RPMI-8226,35.7 µM (inactive)
same,GI50,RXF 393,99.3 µM (inactive)
same,GI50,SF-268,> 100 µM (inactive)
same,GI50,SF-295,> 100 µM (inactive)
same,GI50,SF-539,> 100 µM (inactive)
same,GI50,SK-MEL-28,> 100 µM (inactive)
same,GI50,SK-MEL-2,> 100 µM (inactive)
same,GI50,SK-MEL-5,52 µM (inactive)
same,GI50,SK-OV-3,> 100 µM (inactive)
same,GI50,SN12C,> 100 µM (inactive)
same,GI50,SNB-19,74.1 µM (inactive)
same,GI50,SNB-75,> 100 µM (inactive)
same,GI50,SR,28.4 µM (inactive)
same,GI50,SW-620,> 100 µM (inactive)
same,GI50,T47D,87.3 µM (inactive)
same,GI50,TK-10,> 100 µM (inactive)
same,GI50,U-251,70 µM (inactive)
same,GI50,UACC-257,> 100 µM (inactive)
same,GI50,UACC-62,41.8 µM (inactive)
same,GI50,UO-31,45.9 µM (inactive)
